Where “and” joins values, the source holds several entries; their conditions need not be identical. Equal entries are not always repeated. Where two headings read alike, the source gives them in different places. Blank lines part the entries; values can stand above or below the compound they belong to.
Tests used:
[1] = design: method as in PubChem https://pubchem.ncbi.nlm.nih.gov/; conditions: ref PubChem https://pubchem.ncbi.nlm.nih.gov/; cited from earlier work
[2] = molecular target: T1, human NIS (Homo sapiens, UniProt Q92911); test: Biotransformation (BTS, rat S9)-augmented NIS-inhibition assay, HEK293T NIS02; conditions: for effect of fully active BTS (W/S9, W/cof) on NIS inhibition versus control setups: two-way ANOVA, p < 0.05
T1 sequence (Q92911 1-643): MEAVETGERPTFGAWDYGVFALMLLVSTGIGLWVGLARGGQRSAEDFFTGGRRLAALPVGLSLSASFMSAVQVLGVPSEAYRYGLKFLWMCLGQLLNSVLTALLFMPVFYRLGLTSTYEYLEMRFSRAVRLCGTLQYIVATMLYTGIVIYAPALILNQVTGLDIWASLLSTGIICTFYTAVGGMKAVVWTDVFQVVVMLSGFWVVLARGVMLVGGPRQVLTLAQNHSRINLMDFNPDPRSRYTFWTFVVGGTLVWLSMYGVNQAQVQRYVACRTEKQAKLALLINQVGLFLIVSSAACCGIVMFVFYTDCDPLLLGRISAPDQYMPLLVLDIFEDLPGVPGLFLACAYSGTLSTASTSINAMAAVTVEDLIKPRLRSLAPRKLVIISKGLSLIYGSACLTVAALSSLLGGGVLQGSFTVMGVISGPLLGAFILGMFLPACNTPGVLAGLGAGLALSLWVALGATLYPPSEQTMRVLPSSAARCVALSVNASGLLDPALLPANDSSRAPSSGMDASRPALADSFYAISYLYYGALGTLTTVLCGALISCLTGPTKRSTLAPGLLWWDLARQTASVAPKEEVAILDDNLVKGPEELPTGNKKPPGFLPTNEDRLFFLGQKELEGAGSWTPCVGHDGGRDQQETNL

[3] = molecular target: T1, human NIS; design: host or cells: HEK293T (lentiviral transduction, puromycin selection, GFP sorting; lines NIS 02 and NIS C); conditions: cited from earlier work; for IC20: read-out: Data from literature NIS IC20
[4] = design: method as in PubChem https://pubchem.ncbi.nlm.nih.gov/; conditions: ref PubChem https://pubchem.ncbi.nlm.nih.gov/; cited from earlier work; remark: listed apart in the source
[5] = molecular target: T2, NIS (Rattus norvegicus, UniProt Q63008); test: NIS-inhibition assay (iodide uptake, Sandell–Kolthoff reaction) on FRTL-5; type: cell-based; conditions: mean ± SD, ≥ 3 independent experiments; 2 h exposure; SK reaction
T2 construct: the endogenously NIS-expressing rat FRTL-5 cell line; host or cells: FRTL-5 (CVCL_0265)
T2 sequence (Q63008 1-618): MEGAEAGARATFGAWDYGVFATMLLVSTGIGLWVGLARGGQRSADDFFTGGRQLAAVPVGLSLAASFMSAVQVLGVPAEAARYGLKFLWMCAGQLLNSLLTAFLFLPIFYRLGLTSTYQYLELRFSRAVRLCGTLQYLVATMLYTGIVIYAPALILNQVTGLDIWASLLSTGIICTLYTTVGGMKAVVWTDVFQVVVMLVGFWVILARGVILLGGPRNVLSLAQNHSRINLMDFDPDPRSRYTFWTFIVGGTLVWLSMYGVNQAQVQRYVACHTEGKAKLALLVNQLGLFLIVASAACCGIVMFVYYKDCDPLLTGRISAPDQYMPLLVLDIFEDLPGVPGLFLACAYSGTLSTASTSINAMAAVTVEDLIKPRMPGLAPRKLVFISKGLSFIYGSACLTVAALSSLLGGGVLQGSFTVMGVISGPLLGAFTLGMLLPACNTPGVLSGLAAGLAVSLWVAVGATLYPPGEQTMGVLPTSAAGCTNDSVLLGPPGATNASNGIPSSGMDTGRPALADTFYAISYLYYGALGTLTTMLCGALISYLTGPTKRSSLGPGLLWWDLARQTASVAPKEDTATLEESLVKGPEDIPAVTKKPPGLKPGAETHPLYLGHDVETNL

[6] = molecular target: T1, human NIS
[7] = molecular target: T1, human NIS; test: NIS-inhibition assay (iodide uptake, Sandell–Kolthoff reaction) on HEK293T NIS C; type: cell-based; design: host or cells: HEK293T (lentiviral transduction, puromycin selection, GFP sorting; lines NIS 02 and NIS C)
[8] = molecular target: T1, human NIS; test: NIS-inhibition assay (iodide uptake, Sandell–Kolthoff reaction) on HEK293T NIS 02; type: cell-based; design: host or cells: HEK293T (lentiviral transduction, puromycin selection, GFP sorting; lines NIS 02 and NIS C)
[9] = molecular target: T2, NIS; conditions: FRTL-5, SK, read-out: Data from literature NIS IC50, cited from earlier work
[10] = in vitro; conditions: rat, FRTL-5 cells
[11] = in vitro; conditions: human, HEK293T NIS C cells
[12] = test system: whale NIS; design: method as in Concilio et al., 2020; conditions: HeLa transfected with whale NIS; RAIU; ref Concilio et al., 2020; read-out: Data from literature NIS IC50; cited from earlier work
[13] = molecular target: T1, human NIS; design: method as in Dong et al., 2019; conditions: MCF7hNIS, SK, ref Dong et al., 2019, cited from earlier work
[14] = test system: zebrafish NIS; design: method as in Concilio et al., 2020; conditions: HeLa transfected with zebrafish NIS; RAIU; ref Concilio et al., 2020; read-out: Data from literature NIS IC50; cited from earlier work
[15] = ref PubChem https://pubchem.ncbi.nlm.nih.gov/; cited from earlier work
[16] = molecular target: T1, human NIS; design: host or cells: HEK293T (lentiviral transduction, puromycin selection, GFP sorting; lines NIS 02 and NIS C); method as in Dong et al., 2019; conditions: hNIS-HEK293T-EPA, SK, ref Dong et al., 2019, cited from earlier work
[17] = molecular target: T2, NIS; conditions: FRTL-5, RAIU, read-out: Data from literature NIS IC50, cited from earlier work
[18] = test system: hNIS; design: method as in Concilio et al., 2020; conditions: HeLa transfected with hNIS; RAIU; ref Concilio et al., 2020; read-out: Data from literature NIS IC50; cited from earlier work
[19] = in vitro; conditions: human
[20] = test system: HEK293T NIS02 cells; test: Neutral red uptake viability assay, HEK293T NIS02; conditions: 100 µM
[21] = hNIS-HEK293T-EPA, RAIU, ref Hallinger et al., 2017
[22] = mean ± SD, ≥ 3 independent experiments, 2 h exposure, SK reaction, read-out: NIS IC50 HEK293T NIS C
[23] = mean ± SD, ≥ 3 independent experiments, 2 h exposure, SK reaction, read-out: NIS IC50 HEK293T NIS 02
[24] = read-out: Data from literature NIS IC20
[25] = read-out: Data from literature NIS IC50

- increase of IC20 by preincubation in fully active BTS setup compared to the denatured BTS setup ([2]; W/S9, W/cof vs D S9, W/cof): ~6.3 fold
- IC20 ([2]; read-out: NIS inhibition IC20 SM, standard method without preincubation, run in parallel, three independent experiments): 4.7 ± 6 µM
- IC50 [5]: 302 ± 197 µM
- IC50 [7, 22]: 309 ± 2.5 µM
- IC50 [8, 23]: 111 ± 75 µM
- IC20 at 2 h [10]: 364 µM
- IC20 at 2 h [11]: 181 µM
Structure (SMILES): CC(C)(c1ccc(O)cc1)c1ccc(O)cc1 [BPA, Bisphenol A]
- log Kow [1]: 3.32
- IC20 [3, 21]: 35.5 µM
- IC20 ([3]; hNIS-HEK293T-EPA, RAIU, ref US-EPA, 2024): 24.3 ± 21.6 µM
- Data from literature NIS IC50 ([3]; hNIS-HEK293T-EPA, RAIU, ref Wang et al., 2018): n.e.
- IC20 ([3]; hNIS-HEK293T-EPA, RAIU, ref Wang et al., 2019): 19.5 µM
- Henry‘s law [4]: 4.0x10^-11 atm- m^3/mol
- effect of fully active BTS (W/S9, W/cof) on NIS inhibition versus control setups [6]: statistically significant reduction in NIS inhibition
- IC50 ([9]; ref Wu et al., 2016): 112 µM

Structure (SMILES): [O-][Cl+3]([O-])([O-])O [PCL, Perchlorate, reference compound]
- IC50 [12]: 4.6 µM and 4.59 µM
- IC20 [13, 24]: 0.2 µM
- IC50 [13, 25]: 0.5 µM
- IC50 [14]: 0.08 µM
- effect of fully active BTS (W/S9, W/cof) on NIS inhibition versus control setups [2]: no significant differences were observed
- IC20 ([3]; hNIS-HEK293T-EPA, RAIU, ref Dong et al., 2019): 0.1 µM
- IC50 ([3]; hNIS-HEK293T-EPA, RAIU, ref Dong et al., 2019, read-out: Data from literature NIS IC50): 0.53 µM
- IC20 [3, 21]: 0.2 µM
- solubility in water [15]: >2000 mg/mL
- IC20 [16, 24]: 0.2 µM
- IC50 [16, 25]: 0.8 µM
- IC50 [5]: 5.1 ± 4.6 µM
- IC50 [7, 22]: 14.9 ± 8.3 µM
- IC50 ([17]; ref Buckalew et al., 2020): 0.2 µM
- IC50 ([17]; ref Waltz et al., 2010): 0.14 µM
- IC50 [8, 23]: 1.65 ± 0.57 µM
- IC50 ([9]; ref Waltz et al., 2010): 0.1 µM
- IC50 ([9]; ref Wu et al., 2016): 0.3 µM
- IC50 [18]: 1.6 µM and 1.56 µM

Structure (SMILES): Oc1cc(Cl)ccc1Oc1ccc(Cl)cc1Cl [TCS, Triclosan]
- increase of IC20 by preincubation in fully active BTS setup compared to the denatured BTS setup [2]: approximately 5 fold
- IC20 ([2]; read-out: NIS inhibition IC20 D S9, W/cof, 5 h preincubation with denatured S9 and cofactors, three independent experiments): 1.07 ± 0.65 µM
- IC20 ([2]; read-out: NIS inhibition IC20 SM): 1.78 ± 1.12 µM
- IC20 ([2]; read-out: NIS inhibition IC20 W/O S9, W/cof, 5 h preincubation without S9 fraction, with all cofactors, three independent experiments): 1.02 ± 0.82 µM
- effect of fully active BTS (W/S9, W/cof) on NIS inhibition versus control setups [2]: statistically significant reduction in NIS inhibition
- IC20 [3]: 2.6 µM
- IC50 [5]: 39.3 ± 18.9 µM
- IC50 [7]: 34.8 ± 23.5 µM
- IC20 at 2 h [19]: 45.9 µM
- IC50 ([8]; NIS IC50 HEK293T NIS 02): 18.5 ± 9.9 µM
- IC50 ([9]; ref Wu et al., 2016): 21.3 µM
- cytotoxicity in the standard NIS assay (NR and CTG) [20]: cytotoxic

— paper PMC12198292, “Advancing in vitro assessment of iodide uptake inhibition: integrating a novel biotransformation pretreatment step” (Archives of Toxicology, 2025)
